From patent publication US5719130A, “Anthracycline derivative having a trifluoromethylated sugar” (Zaidan Hojin Biseibutsu Kagaku Kenkyu Kai, priority 1994, dated 1998)
Converted amounts (≈) assume the structure as drawn.

Tests used:
Leukemia L-1210 cells [1] = assay: Antitumor activity against leukemia L-1210 in CDF1 mice, 60-day observation (Test Example 1); format: in vivo, mouse; settings: for % Increase in life-span (T/C, %): 9 days, 60 d observation, '>' = at least one of four mice survived 60 days
Procedure: Thus, to evaluate the antitumor effects of the new compounds of this invention against experimental tumors in animals, CDF1 mice (four mice per group) were intraperitoneally transplanted with cells of Leukemia L-1210 at an amount of 1×10^5 cells/mouse. Since an elapsed time of 24 hours from the transplantation of the leukemia cells, a test compound according to this invention was administered intraperitoneally to the mice under test for 9 consecutive days once per day. […] While, mice of the control group (the untreated group) were administered with only physiological saline after the transplantation of the L-1210 cells. During the observation period, the numbers of the surviving mice in the treated group and in the control group were counted, and the mean survival days of mice in the treated group and in the control group were then calculated. From the mean survival day (C) of the untreated mice of the control group and the mean survival day (T) of the treated mice of the treated group, there were evaluated percentages (%) of the increase in the life-span of the treated mice, as T/C %. For a comparison purpose, 7-O-(2,6-dideoxy-2-fluoro-α-L-talopyranosyl)daunomycinone (abbreviation: FT-DM); 7-O-(2,6-dideoxy-2-fluoro-α-L-talopyranosyl)adriamycinone (abbreviation: FT-ADM); daunomycin and adriamycin were also tested in the same manner as above. Incidentally, the mean survival day of mice of the control group (the untreated group) was amounting to 8 to 9 days, and the mean survival day of mice of the comparative groups having received the administration of adriamycin was varying dependently on the dosage of adriamycin.

Leukemia L-1210 cells [2] = assay: Antitumor activity against leukemia L-1210 in CDF1 mice, 30-day observation (Test Example 2); format: in vivo, mouse; settings: 9 days, 30 d observation, '>' = at least one of four mice survived 30 days
Procedure: Since an elapsed time of 24 hours from the transplantation of the leukemia cells, Compound (c) of this invention was administered intraperitoneally to the mice under test for 9 consecutive days once per day. […] While, mice of the control group (the untreated group) were administered with only physiological saline after the transplantation of the L-1210 cells. During the observation period, the numbers of the surviving mice in the treated group and the control group were counted, and the mean survival days of mice in the treated group and in the control group were then calculated. From the mean survival day (C) of the untreated mice of the control group and the mean survival day (T) of the treated mice of the treated group, there were evaluated percentages (%) of the increase in the life-span of the treated mice as T/C %. For a comparison purpose, adriamycin was also tested in the same manner as above.

P388 cells = assay: In vitro inhibition of growth of P388 cells, 72 hours (Test Example 3); format: cell-based, mouse; settings: Mus musculus, P388, 72 h
Procedure: (§1) Furthermore, in order to estimate the antitumor activities of Compound (a) and Compound (b) of this invention represented by the general formula (I), as well as the adriamycinone derivative represented by the formula (II) (namely, Compound (c) of this invention), some "in vitro" tests for inhibiting proliferation of cancer cells were conducted as shown below.
(§2) The above-mentioned Compound (a), Compound (b) or Compound (c) according to this invention were added at varying concentrations to mouse leukemia, P388 cells or adriamycin-resistant P388 cells (P388/ADR) which had been incubated in test tubes containing an appropriate culture medium. The incubation of the tumor cells were then continued for 72 hours from the addition of the test compound, and determination was made to evaluate such concentrations of the test compound which could inhibit the growth of the leukemia cells by 50% (namely, IC50' ng/ml). FT-DM, FT-ADM and adriamycin (as the hydrochloride) were used as comparative compounds and were tested in the same manner as above.

[3] = system: adriamycin-resistant P388 cells (P388/ADR); assay: In vitro inhibition of growth of adriamycin-resistant P388 cells, 72 hours (Test Example 3); format: cell-based, mouse; settings: Mus musculus; P388/ADR, 72 hours
Procedure: as §1, §2

[4] = clinical treatments, patients; cited from earlier work

## COc1cccc2c1C(=O)c1c(O)c3c(c(O)c1C2=O)C[C@@](O)(C(=O)CO)C[C@@H]3O[C@H]1C[C@H](N)[C@H](O)[C@H](C)O1 [Adriamycin, adriamycin]
Leukemia L-1210 cells [1]; 0.15 mg/kg/day i.p.
  % Increase in life-span (T/C, %): 140%
Leukemia L-1210 cells [1]; 0.3 mg/kg/day i.p.
  % Increase in life-span (T/C, %): 132%
Leukemia L-1210 cells [1]; 0.6 mg/kg/day i.p.
  % Increase in life-span (T/C, %): 208%
Leukemia L-1210 cells [1]; 1.25 mg/kg/day i.p.
  % Increase in life-span (T/C, %): 330%
Leukemia L-1210 cells [1]; 2.5 mg/kg/day i.p.
  % Increase in life-span (T/C, %): 273%
Leukemia L-1210 cells [1]; 2.5 mg/kg/day to 5 mg/kg/day, about / approximately at maximum
  percentages (%) of increase in life-span (T/C, %): approximately 330%
Leukemia L-1210 cells [1]; 5 mg/kg/day i.p.
  % Increase in life-span (T/C, %): 177%
Leukemia L-1210 cells [1]; 2.5 to 5 mg/kg/day for daunomycin, adriamycin, 0.3 to 1.25 mg/kg/day for Compound (b), low dosages for formula (I)
  development of toxicity (in words): accompanied by development of toxicity
Leukemia L-1210 cells [2]; 0.15 mg/kg/day i.p.
  % Increase in life-span (T/C, %): 140%
Leukemia L-1210 cells [2]; 0.3 mg/kg/day i.p.
  % Increase in life-span (T/C, %): 132%
Leukemia L-1210 cells [2]; 0.6 mg/kg/day i.p.
  % Increase in life-span (T/C, %): 208%
Leukemia L-1210 cells [2]; 1.25 mg/kg/day i.p.
  % Increase in life-span (T/C, %): 330%
Leukemia L-1210 cells [2]; 2.5 mg/kg/day i.p.
  % Increase in life-span (T/C, %): 273%
Leukemia L-1210 cells [2]; 5 mg/kg/day i.p.
  % Increase in life-span (T/C, %): 177%
P388 cells
  IC50: 0.017 µg/mL (≈ 0.0313 µM)
[3]
  IC50: 0.51 µg/mL (≈ 0.938 µM)
[4]
  serious side-effects (in words): serious side-effects such as leukocytopenia, alopecia, myocardiopathy and others
